Test results reported in patent US9663448B2, “Tri-aryl compounds and compositions comprising the same” (BEN-GURION UNIVERSITY OF THE NEGEV RESEARCH AND DEVELOPMENT …, priority 2007, dated 2017).

Assay: Solubility noted at work-up of the synthesis
Assay type: physicochemical
Details: qualitative remark
Procedure: 1,1,1-tris(4-hydroxyphenyl)ethane (1.53 gr, 5 mM), formaldehyde (1.35 gr, 45 mM) and 1-methyl piperazine (2.5 ml, 50 mM) in 20 ml water and 25 ml EtOH were refluxed for 3 hours. Evaporation provided a solid that by TLC and NMR contained 2 products, which was not the starting material. Formaldehyde (0.75 gr, 25 mM) and 1-methyl piperazine (1.5 ml, 30 mM) were added to 5 ml water and 10 ml EtOH and the reaction was refluxed for 4 hours. Evaporation and workup gave 3.3 gr light yellow-white solid, 67% yield, mp. […].

CN1CCN(Cc2cc(C(C)(c3cc(CN4CCN(C)CC4)c(O)c(CN4CCN(C)CC4)c3)c3cc(CN4CCN(C)CC4)c(O)c(CN4CCN(C)CC4)c3)cc(CN3CCN(C)CC3)c2O)CC1 [VIII]
solubility in ethanol (solvent ethanol): Soluble
solubility in water (solvent water): very good solubility
